Activity calls are given as the source filed them. The rule behind the calls is not given here.
Columns and labels:
[1] = Acute toxicity in po dosed Rattus norvegicus Wistar (rat); assay type: organism-based; settings: in vivo
Triticum aestivum [2] = assay: Increase in winter Triticum aestivum (wheat) crop yield assessed as gluten content at 900 g/ha applied at the end of tillering stage of crop measured at 4 weeks post-drug dosage (reference value: 25.95%); assay type: functional
Triticum aestivum [3] = assay: Increase in winter Triticum aestivum (wheat) crop yield assessed as protein content at 900 g/ha applied at the end of tillering stage of crop measured at 4 weeks post-drug dosage (reference value: 11.12%); assay type: functional
Triticum aestivum [4] = assay: Increase in winter Triticum aestivum (wheat) crop yield assessed as weight of 1000 grains at 900 g/ha applied at the end of tillering stage of crop measured at 4 weeks post-drug dosage (reference value: 37.79 g); assay type: functional
Triticum aestivum [5] = assay: Increase in winter Triticum aestivum (wheat) crop yield at 900 g/ha applied at the end of tillering stage of crop measured at 4 weeks post-drug dosage (reference value: 7.40 t/ha); assay type: functional
Matricaria [6] = assay: Herbicidal activity against Matricaria inodora in winter wheat crop field at 900 g/ha applied at the end of tillering stage of crop measured at 4 weeks post-drug dosage; assay type: functional
Thlaspi arvense [7] = assay: Herbicidal activity against Thlaspi arvense in winter wheat crop field at 900 g/ha applied at the end of tillering stage of crop measured at 4 weeks post-drug dosage; assay type: functional
Consolida regalis [8] = assay: Herbicidal activity against Consolida regalis in winter wheat crop field at 900 g/ha applied at the end of tillering stage of crop measured at 4 weeks post-drug dosage; assay type: functional
Brassica napus [9] = assay: Herbicidal activity against Brassica napus (oilseed rape) in winter wheat crop field at 900 g/ha applied at the end of tillering stage of crop measured at 4 weeks post-drug dosage; assay type: functional
Euphorbia helioscopia = assay: Herbicidal activity against Euphorbia helioscopia measured at 4 weeks post-drug dosage; assay type: functional, organism-based
Myosotis arvensis = assay: Herbicidal activity against Myosotis arvensis measured at 4 weeks post-drug dosage; assay type: functional, organism-based
Centaurea cyanus = assay: Herbicidal activity against Centaurea cyanus measured at 4 weeks post-drug dosage; assay type: functional, organism-based
Chenopodium album = assay: Herbicidal activity against Chenopodium album measured at 4 weeks post-drug dosage; assay type: functional, organism-based
Viola arvensis = assay: Herbicidal activity against Viola arvensis measured at 4 weeks post-drug dosage; assay type: functional, organism-based
Brassica napus [10] = assay: Herbicidal activity against Brassica napus (oilseed rape) measured at 4 weeks post-drug dosage; assay type: functional, organism-based
Thlaspi arvense [11] = assay: Herbicidal activity against Thlaspi arvense measured at 4 weeks post-drug dosage; assay type: functional, organism-based
Triticum aestivum [12] = assay: Reduction in Triticum aestivum (wheat) stem length applied at the end of tillering stage of crop measured at 4 weeks post-drug dosage; assay type: functional, organism-based
Triticum aestivum [13] = assay: Increase in winter Triticum aestivum (wheat) crop yield assessed as protein content at 600 g/ha applied at the end of tillering stage of crop measured at 4 weeks post-drug dosage (reference value: 11.12%); assay type: functional
Triticum aestivum [14] = assay: Increase in winter Triticum aestivum (wheat) crop yield assessed as weight of 1000 grains at 600 g/ha applied at the end of tillering stage of crop measured at 4 weeks post-drug dosage (reference value: 37.79 g); assay type: functional
Triticum aestivum [15] = assay: Increase in winter Triticum aestivum (wheat) crop yield at 600 g/ha applied at the end of tillering stage of crop measured at 4 weeks post-drug dosage (reference value: 7.40 t/ha); assay type: functional
Matricaria [16] = assay: Herbicidal activity against Matricaria inodora in winter wheat crop field at 600 g/ha applied at the end of tillering stage of crop measured at 4 weeks post-drug dosage; assay type: functional
Thlaspi arvense [17] = assay: Herbicidal activity against Thlaspi arvense in winter wheat crop field at 600 g/ha applied at the end of tillering stage of crop measured at 4 weeks post-drug dosage; assay type: functional
Consolida regalis [18] = assay: Herbicidal activity against Consolida regalis in winter wheat crop field at 600 g/ha applied at the end of tillering stage of crop measured at 4 weeks post-drug dosage; assay type: functional
Brassica napus [19] = assay: Herbicidal activity against Brassica napus (oilseed rape) in winter wheat crop field at 600 g/ha applied at the end of tillering stage of crop measured at 4 weeks post-drug dosage; assay type: functional
Triticum aestivum [20] = assay: Increase in winter Triticum aestivum (wheat) crop yield assessed as gluten content at 600 g/ha applied at the end of tillering stage of crop measured at 4 weeks post-drug dosage (reference value: 25.95%); assay type: functional

Cc1cc(Cl)ccc1OCC(=O)O [METAXON]
LD50 [1]: 962 mg/kg

C[N+](C)(C)CCCl.[Cl-] [CHLORMEQUAT CHLORIDE]
LD50 [1]: 1300 mg/kg

C[N+](C)(C)CCl.Cc1cc(Cl)ccc1OCC(=O)[O-] [listing 1 of 2 here]
LD50 [1]: 300 mg/kg

CCCCCCCCCC[N+](C)(C)CCCCCCCCCC.Cc1cc(Cl)ccc1OCC(=O)[O-]
LD50 [1]: 300 mg/kg

Cc1cc(Cl)ccc1OCC(=O)[O-].[Na+]
Activity (Triticum aestivum [2]): 27.33%
Activity (Triticum aestivum [3]): 11.08%
Activity (Triticum aestivum [4]): 39.3 g
Crop_yield (Triticum aestivum [5]): 7.81 tons/ha
Activity (Matricaria [6]): 56%
Activity (Thlaspi arvense [7]): 100%
Activity (Consolida regalis [8]): 96%
Activity (Brassica napus [9]): 100%

C[N+](C)(C)CCl.Cc1cc(Cl)ccc1OCC(=O)[O-] [listing 2 of 2 here]
Activity (Euphorbia helioscopia): Active
Activity (Myosotis arvensis): Active
Activity (Centaurea cyanus): Active
Activity (Chenopodium album): Active
Activity (Viola arvensis): Active
Activity (Brassica napus [10]): Active
Activity (Thlaspi arvense [11]): Active
inhibition (Triticum aestivum [12]): Active

CCCCC(CC)OC(=O)COc1ccc(Cl)cc1C (centres undefined)
Activity (Triticum aestivum [13]): 11.03%
Activity (Triticum aestivum [14]): 39.78 g
Crop_yield (Triticum aestivum [15]): 7.8 tons/ha
Activity (Matricaria [16]): 62%
Activity (Thlaspi arvense [17]): 100%
Activity (Consolida regalis [18]): 95%
Activity (Brassica napus [19]): 100%
LD50 [1]: 1300 mg/kg
Activity (Triticum aestivum [20]): 27.12%

Source: ChEMBL document CHEMBL3046723, “Ionic liquids with herbicidal anions” (Tetrahedron, 2011)
